# Reference: US20200061007A1, “CANCER STEM CELL PROLIFERATION INHIBITOR” (NATIONAL INSTITUTE OF ADVANCED INDUSTRIAL SCIENCE AND …, priority 2014, published 2020)
# Key:
# [1] = tested on: Human Leukemia Cell Line Kasumi-1; assay: Growth inhibition of Kasumi-1, isobologram; assay type: cell-based; conditions: Kasumi-1, RPMI1640 with 20% FBS
# Description: A human leukemia cell line Kasummi-1, containing cells positive for cancer stem cell markers, was cultured in RPMI1640 medium supplemented with 20% FBS, and the growth inhibitory action by the combination of Am80 and 5-AZ was studied using Isobologram. […] These concentrations were taken as 1.0, and the points corresponding to 1.0 in the two axes were connected to each other via a straight line. In cases where the ratio observed for the combination effect is on the line, the effect is additive, and, in cases where the ratio is below the line, the effect is synergistic.
# [2] = tested on: human breast cancer cell line MCF-7; assay: Growth inhibition of MCF-7 in vitro; assay type: cell-based; conditions: MCF-7, 96 hours of exposure, RPMI1640 with 2% FBS
# Description: (§1) A human breast cancer cell line MCF-7, containing cells positive for cancer stem cell markers, was cultured in RPMI1640 medium supplemented with 2% FBS, and the growth inhibitory action by the combination of Am80 and 5-AZ was studied. The IC50 values of the agents determined by 96 hours of the exposure were 1 μM and 20 μM, respectively. Thus, in order to study the growth inhibitory action, Am80 was used within the concentration range of 0.125 μM to 1 μM with a common ratio of 2, and 5-AZ was used within the concentration range of 2.5 μM to 20 μM with a common ratio of 2. In cases of use of these agents in combination, the growth inhibitory action was studied using these concentrations.
# [3] = tested on: human prostate cancer cell line LNCaP; assay: Growth inhibition of LNCaP in vitro; assay type: cell-based; conditions: 96 hours of exposure, RPMI1640 with 10% FBS
# Description: as §1, with “prostate” for “breast”, “LNCaP,” for “MCF-7,”, “10%” for “2%”, “The IC50 values of the agents determined by 96 hours of the exposure were 1 μM and 20 μM, respectively.” left out, “1.56” for “2.5”, “12.5” for “20”
# [4] = tested on: human prostate cancer cell line LNCaP; assay: Tumor volume, LNCaP/nude mice; assay type: in vivo
# Description: (§2) A tumor piece of a human prostate cancer cell line LNCaP containing cells positive for cancer stem cell markers was subcutaneously transplanted to the dorsal part of each of 6-week-old female BALB/cAJc1-nu nude mice (4 mice/group) using a trocar needle. At the time when the tumor volume reached 100 to 200 mm^3, the administration was started. Am80 was orally administered once a day at a dose of 1 mg/kg for 21 continuous days, and DXL was intravenously administered at a dose of 5 mg/kg from Day 1, 3 times at intervals of 4 days. In the combination group, the agents were administered at the same doses as, and by the same administration methods as, those in the cases of administration of each single agent. Measurement of the tumor diameter was carried out until the next day of the completion of the administration (Day 22). The longitudinal diameter and the transverse diameter of the tumor were measured using a caliper, and the tumor volume (mm^3) was determined according to the following formula: longitudinal diameter×transverse diameter^2/2. In the control group, physiological saline was intraperitoneally administered from Day 1, 3 times at intervals of 4 days.
# [5] = tested on: human breast cancer cell line MCF-7; assay: Tumor volume, MCF-7/nude mice; assay type: in vivo
# Description: as §2, with “breast” for “prostate”, “MCF-7” for “LNCaP”, “(5” for “(4”, “3.5” for “5”
# [6] = tested on: human pancreatic cancer cells MIA-Paca2; assay: Tumor volume, MIA-Paca2/nude mice; assay type: in vivo
# Description: A tumor piece of human pancreatic cancer cells MIA-Paca2 containing cells positive for cancer stem cell markers was subcutaneously transplanted to the dorsal part of each of 6-week-old female BALB/cAJc1-nu nude mice (4 mice/group, 5 mice only for the control group) using a trocar needle. At the time when the tumor volume reached 100 to 200 mm^3, the administration was started. Am80 was orally administered once a day at a dose of 2 mg/kg for 21 continuous days, and DXL was intravenously administered at a dose of 5 mg/kg from Day 1, 3 times at intervals of 4 days. In the combination group, the agents were administered at the same doses as, and by the same administration methods as, those in the cases of administration of each single agent. Measurement of the tumor diameter was carried out until the next day of the completion of the administration (Day 22). Based on the measured values of the longitudinal diameter and the transverse diameter, the tumor volume (mm^3) was determined according to the following formula: longitudinal diameter×transverse diameter^2/2. In the control group, physiological saline was intraperitoneally administered from Day 1, 3 times at intervals of 4 days.
smiles,measurement,setting,value
"Nc1ncn([C@@H]2O[C@H](CO)[C@@H](O)[C@H]2O)c(=O)n1 [5-AZ, Azacytidine]",IC50,[1],8.4 µM
same,IC50,[2],20 µM
same,IC50,[3],25 µM
"CC(=O)O[C@@]12CO[C@@H]1C[C@H](O)[C@@]1(C)C(=O)[C@H](O)C3=C(C)[C@@H](OC(=O)[C@H](O)[C@@H](NC(=O)OC(C)(C)C)c4ccccc4)C[C@@](O)([C@@H](OC(=O)c4ccccc4)[C@H]21)C3(C)C [DXL, Docetaxel]",tumor volume Day 1,"[4]; Am80 1 mg/kg oral daily 21 days, DXL 5 mg/kg i.v. 3 times at intervals of 4 days, Day 1",126.7 mm^3
same,tumor volume Day 5,"[4]; Am80 1 mg/kg oral daily, DXL 5 mg/kg i.v., Day 5",111.3 mm^3
same,tumor volume Day 9,"[4]; Am80 1 mg/kg oral daily, DXL 5 mg/kg i.v., Day 9",90.7 mm^3
same,tumor volume Day 13,"[4]; Am80 1 mg/kg oral daily, DXL 5 mg/kg i.v., Day 13",73.7 mm^3
same,tumor volume Day 17,"[4]; Am80 1 mg/kg oral daily, DXL 5 mg/kg i.v., Day 17",72.5 mm^3
same,tumor volume Day 22,"[4]; Am80 1 mg/kg oral daily, DXL 5 mg/kg i.v., Day 22",70.2 mm^3
same,tumor volume Day 1,"[5]; Am80 1 mg/kg oral daily 21 days, DXL 3.5 mg/kg i.v. 3 times at intervals of 4 days, Day 1",143.5 mm^3
same,tumor volume Day 5,"[5]; Am80 1 mg/kg oral daily, DXL 3.5 mg/kg i.v., Day 5",121.5 mm^3
same,tumor volume Day 9,"[5]; Am80 1 mg/kg oral daily, DXL 3.5 mg/kg i.v., Day 9",110.0 mm^3
same,tumor volume Day 13,"[5]; Am80 1 mg/kg oral daily, DXL 3.5 mg/kg i.v., Day 13",83.3 mm^3
same,tumor volume Day 17,"[5]; Am80 1 mg/kg oral daily, DXL 3.5 mg/kg i.v., Day 17",66.5 mm^3
same,tumor volume Day 22,"[5]; Am80 1 mg/kg oral daily, DXL 3.5 mg/kg i.v., Day 22",71.3 mm^3
same,tumor volume Day 1,"[6]; Am80 2 mg/kg oral daily 21 days, DXL 5 mg/kg i.v. 3 times at intervals of 4 days, Day 1",136.7 mm^3
same,tumor volume Day 5,"[6]; Am80 2 mg/kg oral daily, DXL 5 mg/kg i.v., Day 5",151.3 mm^3
same,tumor volume Day 9,"[6]; Am80 2 mg/kg oral daily, DXL 5 mg/kg i.v., Day 9",135.7 mm^3
same,tumor volume Day 13,"[6]; Am80 2 mg/kg oral daily, DXL 5 mg/kg i.v., Day 13",93.7 mm^3
same,tumor volume Day 17,"[6]; Am80 2 mg/kg oral daily, DXL 5 mg/kg i.v., Day 17",76.3 mm^3
same,tumor volume Day 22,"[6]; Am80 2 mg/kg oral daily, DXL 5 mg/kg i.v., Day 22",77.3 mm^3
